Assay results published in publication PMC3038607 (Journal of the American Chemical Society, 2011).

Biological target: T1, dimethylarginine dimethylaminohydrolase (DDAH) (Pseudomonas aeruginosa, UniProt Q9I4E3)
T1 sequence (Q9I4E3 1-254): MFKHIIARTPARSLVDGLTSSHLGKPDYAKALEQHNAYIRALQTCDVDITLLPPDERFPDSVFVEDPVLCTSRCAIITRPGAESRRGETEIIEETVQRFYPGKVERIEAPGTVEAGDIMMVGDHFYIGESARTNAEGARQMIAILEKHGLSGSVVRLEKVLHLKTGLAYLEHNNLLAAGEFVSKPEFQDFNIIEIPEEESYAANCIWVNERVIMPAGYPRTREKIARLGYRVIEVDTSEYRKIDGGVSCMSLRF
Test: time-dependent inactivation kinetics
Format: biochemical
Details: read-out: Ki

Cc1cc(Br)ccn1 [compound 1, 4-bromo-2-methylpyridine]
KI (inactivation): 2600 ± 800 µM
